# Results from PubChem BioAssay AID256 (DTP/NCI, 2004).
# Several values for one entry are separate records, joined by “and”; a condition that tells them apart may be missing. Identical values can stand only once. Toxic doses and inconclusive results are not listed.
# Test system: CD2F1 mice, L1210 leukemia ip, survival T/C
# Assay: NCI In Vivo Anticancer Drug Screen. Data for tumor model L1210 Leukemia (intraperitoneal) in CD2F1 (CDF1) mice
# Settings: higher = longer survival
# Method in brief: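 Activity against a transplanted murine tumor was judged by comparing the compound group with a vehicle group. The outcome in the treated animals was divided by that in the controls.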
# [1] = endpoint: mean survival time, dose: 100.0 mg/kg/injection, schedule: Q01DX009 (ip), vehicle: other
# [2] = endpoint: mean survival time, dose: 200.0 mg/kg/injection, schedule: Q01DX009 (ip), vehicle: other
# [3] = endpoint: mean survival time, dose: 50.0 mg/kg/injection, schedule: Q04DX003 (ip), vehicle: saline with Tween-80
# [4] = endpoint: mean survival time, dose: 100.0 mg/kg/injection, schedule: Q04DX003 (ip), vehicle: saline with Tween-80
# [5] = endpoint: mean survival time, dose: 200.0 mg/kg/injection, schedule: Q04DX003 (ip), vehicle: saline with Tween-80
# [6] = endpoint: mean survival time, dose: 400.0 mg/kg/injection, schedule: Q04DX003 (ip), vehicle: saline with Tween-80
# [7] = endpoint: mean survival time, dose: 100.0 mg/kg/injection, schedule: Q01DX001 (ip), vehicle: saline with Tween-80
# [8] = endpoint: mean survival time, dose: 100.0 mg/kg/injection, schedule: Q01DX001 (ip), vehicle: saline
# [9] = endpoint: mean survival time, dose: 100.0 mg/kg/injection, schedule: Q01DX009 (ip), vehicle: saline
# [10] = endpoint: mean survival time, dose: 200.0 mg/kg/injection, schedule: Q01DX001 (ip), vehicle: saline with Tween-80
# [11] = endpoint: mean survival time, dose: 200.0 mg/kg/injection, schedule: Q01DX009 (ip), vehicle: saline
# [12] = endpoint: mean survival time, dose: 400.0 mg/kg/injection, schedule: Q01DX001 (ip), vehicle: saline with Tween-80
# [13] = endpoint: mean survival time, dose: 400.0 mg/kg/injection, schedule: Q01DX009 (ip), vehicle: saline
# [14] = endpoint: mean survival time, dose: 5.0 mg/kg/injection, schedule: Q01DX001 (ip), vehicle: saline
# [15] = endpoint: mean survival time, dose: 10.0 mg/kg/injection, schedule: Q01DX001 (ip), vehicle: saline
# [16] = endpoint: mean survival time, dose: 20.0 mg/kg/injection, schedule: Q01DX001 (ip), vehicle: saline
# [17] = endpoint: mean survival time, dose: 40.0 mg/kg/injection, schedule: Q01DX001 (ip), vehicle: saline
# [18] = endpoint: mean survival time, dose: 100.0 mg/kg/injection, schedule: Q01DX009 (ip), vehicle: saline with Tween-80
# [19] = endpoint: mean survival time, dose: 200.0 mg/kg/injection, schedule: Q01DX009 (ip), vehicle: saline with Tween-80
# [20] = endpoint: mean survival time, dose: 400.0 mg/kg/injection, schedule: Q01DX009 (ip), vehicle: saline with Tween-80
# [21] = endpoint: mean survival time, dose: 50.0 mg/kg/injection, schedule: Q01DX009 (ip), vehicle: saline with Tween-80
# [22] = endpoint: mean survival time, dose: 6.25 mg/kg/injection, schedule: Q01DX009 (ip), vehicle: saline with Tween-80
# [23] = endpoint: mean survival time, dose: 12.5 mg/kg/injection, schedule: Q01DX009 (ip), vehicle: saline with Tween-80
# [24] = endpoint: mean survival time, dose: 25.0 mg/kg/injection, schedule: Q01DX009 (ip), vehicle: saline with Tween-80
smiles,measurement,setting,value
O=NN(CCCl)C(=S)NCCCl,T/C,"endpoint: mean survival time, dose: 1.87 mg/kg/injection, schedule: Q01DX001 (ip), vehicle: distilled water + Tween-80",113 % of control
same,T/C,"endpoint: mean survival time, dose: 3.75 mg/kg/injection, schedule: Q01DX001 (ip), vehicle: distilled water + Tween-80",115 % of control
same,T/C,"endpoint: mean survival time, dose: 15.0 mg/kg/injection, schedule: Q01DX001 (ip), vehicle: distilled water + Tween-80",159 % of control and 215 % of control
same,T/C,"endpoint: mean survival time, dose: 30.0 mg/kg/injection, schedule: Q01DX001 (ip), vehicle: distilled water + Tween-80",318 % of control
O=[N+]([O-])O.[Er],T/C,"endpoint: mean survival time, dose: 25.0 mg/kg/injection, schedule: Q04DX003 (ip), vehicle: saline",96 % of control
same,T/C,"endpoint: mean survival time, dose: 50.0 mg/kg/injection, schedule: Q04DX003 (ip), vehicle: saline",87 % of control
same,T/C,"endpoint: mean survival time, dose: 100.0 mg/kg/injection, schedule: Q04DX003 (ip), vehicle: saline",87 % of control
CCOC(=O)C1=C(C)NC(C)=C(C(=O)OCC)C1Cc1ccccc1,T/C,[1],106 % of control
same,T/C,[2],98 % of control
same,T/C,"endpoint: mean survival time, dose: 400.0 mg/kg/injection, schedule: Q01DX009 (ip), vehicle: other",104 % of control
O=N[O-].O=N[O-].[NH-]CC[NH-].[Pt+2],T/C,"endpoint: mean survival time, dose: 25.0 mg/kg/injection, schedule: Q04DX003 (ip), vehicle: saline with Tween-80",101 % of control
same,T/C,[3],98 % of control
same,T/C,[4],93 % of control
O=[N+]([O-])c1ccc(N/N=C(/C(=N/Nc2ccc([N+](=O)[O-])cc2)c2ccccc2)c2ccccc2)cc1,T/C,"endpoint: mean survival time, dose: 12.5 mg/kg/injection, schedule: Q01DX009 (ip), vehicle: other",104 % of control
same,T/C,"endpoint: mean survival time, dose: 25.0 mg/kg/injection, schedule: Q01DX009 (ip), vehicle: other",101 % of control
same,T/C,"endpoint: mean survival time, dose: 50.0 mg/kg/injection, schedule: Q01DX009 (ip), vehicle: other",102 % of control
same,T/C,[1],93 % of control
same,T/C,[4],93 % of control
same,T/C,[2],93 % of control
same,T/C,[5],88 % of control
same,T/C,[6],88 % of control
C=CC(=O)NC(C)(C)CC(C)=O,T/C,[7],98 % of control
same,T/C,[8],103 % of control
same,T/C,[9],100 % of control
same,T/C,[10],102 % of control
same,T/C,"endpoint: mean survival time, dose: 200.0 mg/kg/injection, schedule: Q01DX001 (ip), vehicle: saline",97 % of control
same,T/C,[11],100 % of control
same,T/C,[12],102 % of control
same,T/C,"endpoint: mean survival time, dose: 400.0 mg/kg/injection, schedule: Q01DX001 (ip), vehicle: saline",102 % of control
O=C1C=CC(=O)C(SCCC(=O)O)=C1,T/C,[3],94 % of control
same,T/C,[4],96 % of control
same,T/C,[5],111 % of control
NC(=O)c1n[nH]c(C2OC(COP(=O)(O)O)C(O)C2O)n1 (stereo not given),T/C,"endpoint: mean survival time, dose: 12.5 mg/kg/injection, schedule: Q01DX005 (ip), vehicle: water",100 % of control
same,T/C,"endpoint: mean survival time, dose: 25.0 mg/kg/injection, schedule: Q01DX005 (ip), vehicle: water",100 % of control
same,T/C,"endpoint: mean survival time, dose: 50.0 mg/kg/injection, schedule: Q01DX005 (ip), vehicle: water",96 % of control
same,T/C,"endpoint: mean survival time, dose: 100.0 mg/kg/injection, schedule: Q01DX005 (ip), vehicle: water",97 % of control
same,T/C,"endpoint: mean survival time, dose: 200.0 mg/kg/injection, schedule: Q01DX005 (ip), vehicle: water",96 % of control
COC1OCC(O)C(O)C1O (stereo not given),T/C,[9],101 % of control
same,T/C,[11],98 % of control
same,T/C,[13],98 % of control
CC(CCCC#N)[N+](=O)[O-] (stereo not given),T/C,[14],102 % of control
same,T/C,[15],96 % of control
same,T/C,[16],102 % of control
same,T/C,[17],102 % of control
same,T/C,[8],98 % of control
Cc1cccc(C)c1NC(=O)c1ccccc1O,T/C,[18],98 % of control
same,T/C,[4],101 % of control
same,T/C,[19],97 % of control
same,T/C,[5],96 % of control
same,T/C,[20],100 % of control
same,T/C,[6],102 % of control
O=C1CN(CCN2CC(=O)N(C(=O)c3ccccc3)C2=S)C(=S)N1Cc1ccccc1,T/C,[21],96 % of control
same,T/C,[18],96 % of control
same,T/C,[19],96 % of control
CC(C)(C)OC(=O)NN=C1CCC(C(C)(C)C)CC1 (stereo not given),T/C,[9],93 % of control
same,T/C,[11],91 % of control
same,T/C,[13],98 % of control
CC(CC=O)CCCC(C)(C)O (stereo not given),T/C,[4],103 % of control
same,T/C,[5],95 % of control
same,T/C,[6],98 % of control
OC(Cc1cccc(/C=N/N2CCOCC2)n1)(C(F)(F)F)C(F)(F)F,T/C,[5],89 % of control
same,T/C,[6],89 % of control
CCOC(=O)/C=C/C1=CCCCC1,T/C,[21],101 % of control
same,T/C,[18],96 % of control
same,T/C,[19],108 % of control
O=C(OC1COC(OCc2ccccc2)C(OC(=O)c2ccccc2)C1OC(=O)c1ccccc1)c1ccccc1 (stereo not given),T/C,[22],102 % of control
same,T/C,[23],105 % of control
same,T/C,[24],108 % of control
CNCCN=c1ccc2c3c1c(O)c1c(O)ccc(=O)c1c3[nH]n2CCNCCO,T/C,"endpoint: median survival time, dose: 0.37 mg/kg/injection, schedule: Q01DX009 (ip), vehicle: water",152 % of control and 207 % of control
same,T/C,"endpoint: median survival time, dose: 0.75 mg/kg/injection, schedule: Q01DX009 (ip), vehicle: water",182 % of control and 195 % of control
same,T/C,"endpoint: median survival time, dose: 1.5 mg/kg/injection, schedule: Q01DX009 (ip), vehicle: water",154 % of control and 195 % of control
same,T/C,"endpoint: median survival time, dose: 3.0 mg/kg/injection, schedule: Q01DX009 (ip), vehicle: water",264 % of control and 280 % of control
same,T/C,"endpoint: median survival time, dose: 3.12 mg/kg/injection, schedule: Q01DX009 (ip), vehicle: water",337 % of control
same,T/C,"endpoint: median survival time, dose: 6.0 mg/kg/injection, schedule: Q01DX009 (ip), vehicle: water",120 % of control and 103 % of control
same,T/C,"endpoint: median survival time, dose: 6.25 mg/kg/injection, schedule: Q01DX009 (ip), vehicle: water",120 % of control
O=C1OC(c2c[nH]c3ccccc23)c2ccccc21 (stereo not given),T/C,[7],94 % of control
same,T/C,[10],94 % of control
same,T/C,[12],87 % of control
Nc1ncnc2c(C3OC(CO)C(O)C3O)[nH]nc12 (stereo not given),T/C,[22],108 % of control
same,T/C,[23],120 % of control
same,T/C,[24],113 % of control
same,T/C,[4],101 % of control
same,T/C,[5],109 % of control
O=C1c2c(O)ccc(O)c2C(=O)c2c(NCCO)ccc(NCCO)c21,T/C,[18],103 % of control
same,T/C,[19],110 % of control
same,T/C,[20],113 % of control
c1ccc2c(c1)nnn1c3ncccc3nc21,T/C,"endpoint: mean survival time, dose: 75.0 mg/kg/injection, schedule: Q01DX001 (ip), vehicle: saline",98 % of control
same,T/C,"endpoint: mean survival time, dose: 150.0 mg/kg/injection, schedule: Q01DX001 (ip), vehicle: saline",92 % of control
same,T/C,"endpoint: mean survival time, dose: 300.0 mg/kg/injection, schedule: Q01DX001 (ip), vehicle: saline",93 % of control
O=CO.[Tl],T/C,[14],104 % of control
same,T/C,[15],98 % of control
same,T/C,[16],95 % of control
same,T/C,[17],98 % of control
same,T/C,"endpoint: mean survival time, dose: 80.0 mg/kg/injection, schedule: Q01DX001 (ip), vehicle: saline",104 % of control
COc1cccc(CCCC(=O)O)c1,T/C,"endpoint: mean survival time, dose: 100.0 mg/kg/injection, schedule: Q04DX003 (ip), vehicle: Klucel (hydroxypropylcellulose) (HPC)",101 % of control
same,T/C,"endpoint: mean survival time, dose: 200.0 mg/kg/injection, schedule: Q04DX003 (ip), vehicle: Klucel (hydroxypropylcellulose) (HPC)",101 % of control
same,T/C,"endpoint: mean survival time, dose: 400.0 mg/kg/injection, schedule: Q04DX003 (ip), vehicle: Klucel (hydroxypropylcellulose) (HPC)",101 % of control
CCN(CC)C(=S)S,T/C,"endpoint: mean survival time, dose: 100.0 mg/kg/injection, schedule: Q04DX003 (ip), vehicle: other",94 % of control
same,T/C,"endpoint: mean survival time, dose: 200.0 mg/kg/injection, schedule: Q04DX003 (ip), vehicle: other",97 % of control
same,T/C,"endpoint: mean survival time, dose: 400.0 mg/kg/injection, schedule: Q04DX003 (ip), vehicle: other",103 % of control
ClC1=C(Cl)C(Cl)=C(Cl)C1=Cc1ccccc1,T/C,"endpoint: mean survival time, dose: 3.12 mg/kg/injection, schedule: Q01DX009 (ip), vehicle: saline with Tween-80",101 % of control
same,T/C,[22],104 % of control
same,T/C,[23],105 % of control
same,T/C,[24],106 % of control
same,T/C,[21],105 % of control
